Data as given in article PMC12069340 (Frontiers in Cellular and Infection Microbiology, 2025).
Where a name gives a salt, the structure may show the parent alone. Read-outs that look alike come from different tables or passages of the source.

Legend:
[1] = tested on: A/PuertoRico/8/1934 (H1N1) virus; experiment: microbe, parasite or virus in culture; assay type: cell-based, influenza A virus
in vitro = conditions: human, Relative Viability (%)
[2] = Influenza A virus, H1N1, U-937, 48 h; read-out: NA Inhibition (%)
[3] = Influenza A virus, H1N1, U-937, 48 h, read-out: NA Inhibition (%)

Compound	inhibition at 20 µM [1, 2]	viability at 20 µM (in vitro)	inhibition at 20 µM [1, 3]	NA Inhibition (%) ([1]; 20 µM)
COc1ccc2cccc(CCNC(C)=O)c2c1 [Agomelatine]	18.4%	89.1%	–	–
Cc1cccc(C)c1NC(=O)CN1CCCC1=O [Nefiracetam]	6%	105%	–	–
CCCC(CCC)C(=O)O [Valproic acid sodium salt]	-18.5%	113%	–	–
CN(C)CCN(Cc1ccccc1)c1ccccn1 [Tripelennamine HCl]	-0.2%	105%	–	–
Clc1ccc2nsnc2c1NC1=NCCN1 [Tizanidine HCl]	–	78.9%	-28.3%	–
Cc1ccsc1C(=CCCN1CCC[C@@H](C(=O)O)C1)c1sccc1C [Tiagabine]	14.2%	95.7%	–	–
N=C(N)NC(=O)Cc1c(Cl)cccc1Cl [Guanfacine Hydrochloride]	11%	102%	–	–
CN(C)CCc1c[nH]c2ccc(Cn3cncn3)cc12 [Rizatriptan Benzoate]	7.7%	106%	–	–
COc1cc2nc(N3CCN(C(=O)c4ccco4)CC3)nc(N)c2cc1OC [Prazosin HCl]	-45.6%	76.9%	–	–
COc1cc2nc(N(C)CCCNC(=O)C3CCCO3)nc(N)c2cc1OC (stereo not drawn) [Alfuzosin HCl]	–	110%	-12.3%	–
CCN(C)C(=O)Oc1cccc([C@H](C)N(C)C)c1 [Rivastigmine Tartrate]	-0.2%	116%	–	–
CCC(COC(=O)c1cc(OC)c(OC)c(OC)c1)(c1ccccc1)N(C)C (stereo not drawn) [Trimebutine]	–	108%	43.7%	–
Cc1cccn2c(=O)c(-c3nnn[nH]3)cnc12 [Pemirolast potassium]	-23.7%	108%	–	–
CNC(=C[N+](=O)[O-])NCCSCc1ccc(CN(C)C)o1 [Ranitidine]	-11.1%	109%	–	–
CN[C@H](CC(=O)O)C(=O)O [NMDA (N-Methyl-D-aspartic acid), N-Methyl-D-aspartic acid]	–	113%	-15.5%	–
CC(C)COc1ccc(CNC(=O)N(Cc2ccc(F)cc2)C2CCN(C)CC2)cc1 [Pimavanserin]	18.1%	113%	–	–
CC(C)C(=O)Oc1ccc(CO)cc1[C@H](CCN(C(C)C)C(C)C)c1ccccc1 [Fesoterodine Fumarate]	-27.7%	114%	–	–
OC[C@@H](O)CN1CCN(c2ccccc2)CC1 [Levodropropizine]	35.7%	104%	–	–
COc1ccc(C(CN(C)C)C2(O)CCCCC2)cc1 (stereo not drawn) [Venlafaxine]	-1.3%	93.2%	–	–
Cc1cc(C(C)(C)C)c(O)c(C)c1CC1=NCCN1 [Oxymetazoline hydrochloride]	–	113%	-21%	–
C[C@H](Cc1cc2c(c(C(N)=O)c1)N(CCCO)CC2)NCCOc1ccccc1OCC(F)(F)F [Silodosin]	–	115%	-41.7%	–
COc1ccc(C[C@@H]2c3cc(OC)c(OC)cc3CC[N@+]2(C)CCC(=O)OCCCCCOC(=O)CC[N@@+]2(C)CCc3cc(OC)c(OC)cc3[C@H]2Cc2ccc(OC)c(OC)c2)cc1OC [Cisatracurium Besylate]	–	106%	27.9%	–
CC(C)(C)NCC(O)c1cc(O)cc(O)c1 (stereo not drawn) [Terbutaline Sulfate]	–	101%	39.1%	–

Compound	inhibition at 20 µM [1, 2]	viability at 20 µM (in vitro)	inhibition at 20 µM [1, 3]	NA Inhibition (%) ([1]; 20 µM)
CCN1CCC[C@H]1CNC(=O)c1cc(S(N)(=O)=O)ccc1OC [Levosulpiride]	2.8%	104%	–	–
O=C1CC[C@@]2(O)[C@H]3Cc4ccc(O)c5c4[C@@]2(CCN3CC2CC2)[C@H]1O5 [Naltrexone HCl]	–	107%	10.1%	–
Cc1c(-c2ccccc2)oc2c(C(=O)OCCN3CCCCC3)cccc2c1=O [Flavoxate HCl]	8.2%	118%	–	–
COc1ccccc1N1CCN(CC(O)COc2cccc3ccccc23)CC1 (stereo not drawn) [Naftopidil]	–	102%	13.4%	–
CCC1(c2cnc[nH]2)Cc2ccccc2C1 [Atipamezole]	–	118%	38.2%	–
CNS(=O)(=O)CCc1ccc2[nH]cc(C3CCN(C)CC3)c2c1 [Naratriptan]	5.8%	102%	–	–
OC(CCCN1CCCCC1)(c1ccccc1)c1ccccc1 [Diphenidol HCl]	32.3%	125%	–	–
CNCC(O)c1ccc(O)cc1 (stereo not drawn) [Synephrine]	–	90.5%	12.3%	–
CN(C)C(=O)Oc1ccc[n+](C)c1 [Pyridostigmine Bromide]	-34.1%	88.2%	–	–
C[C@@H]1C(=O)O[C@H]2C[C@@]34[C@H]5C[C@@H](C(C)(C)C)[C@]36[C@@H](OC(=O)[C@@H]6O)O[C@@]4(C(=O)O5)[C@]21O [Ginkgolide A]	23.3%	109%	–	–
CCOc1cc(N)c(Cl)cc1C(=O)NCC1CN(Cc2ccc(F)cc2)CCO1 (stereo not drawn) [Mosapride Citrate]	32.4%	112%	–	–
CC(CCc1ccccc1)NCC(O)c1ccc(O)c(C(N)=O)c1 (stereo not drawn) [Labetalol HCl]	–	101%	-17.2%	–
O=C1c2c(O)cc(O)cc2O[C@H](c2cc(O)c(O)c(O)c2)[C@H]1O [Dihydromyricetin]	9.3%	95.3%	–	–
CN1CCN2c3ccccc3Cc3ccccc3C2C1 (stereo not drawn) [Mianserin HCl]	26.3%	91.9%	–	–
NCCc1c[nH]cn1 [Histamine Phosphate]	–	98.9%	–	-2.9
N#Cc1ccc2[nH]cc(CCCCN3CCN(c4ccc5oc(C(N)=O)cc5c4)CC3)c2c1 [Vilazodone HCl]	-49.6%	98.9%	–	–
C[N+]1(C)CCC(=C(c2ccccc2)c2ccccc2)CC1 [Diphemanil Methylsulfate]	-0.6%	98.2%	–	–
CN1[C@@H]2CC[C@H]1C[C@@H](OC(=O)c1c[nH]c3ccccc13)C2 [Tropisetron]	55.4%	80.9%	–	–
O=c1ccc2ccc(OCCCCN3CCN(c4cccc5sccc45)CC3)cc2[nH]1 [Brexpiprazole]	54%	97.2%	–	–
CC(C[N+](C)(C)C)OC(N)=O (stereo not drawn) [Bethanechol chloride]	2.2%	103%	–	–
c1ccc(CC2=NCCN2)cc1 [Tolazoline HCl]	14.5%	86%	–	–
Cc1cccc(Cc2c[nH]cn2)c1C [Detomidine HCl]	–	109%	31.2%	–
COCCc1ccc(OCC(O)CNC(C)C)cc1 (stereo not drawn) [Metoprolol Tartrate]	–	106%	-24.2%	–

Compound	inhibition at 20 µM [1, 2]	viability at 20 µM (in vitro)	inhibition at 20 µM [1, 3]	NA Inhibition (%) ([1]; 20 µM)
CC(C)(C)NC[C@H](O)COc1nsnc1N1CCOCC1 [Timolol Maleate]	–	91.2%	33.2%	–
CN1CCC(=C2c3ccccc3CCn3c(C=O)cnc32)CC1 [Alcaftadine]	-0.9%	188%	–	–
CN1CCC(=C2c3ccccc3CC(=O)c3sccc32)CC1 [Ketotifen Fumarate]	-4.7%	108%	–	–
O=C(O[C@H]1C[N+]2(CCCOc3ccccc3)CCC1CC2)C(O)(c1cccs1)c1cccs1 [Aclidinium Bromide]	13.8%	194%	–	–
N#Cc1ccccc1-c1cc(-c2ccccn2)cn(-c2ccccc2)c1=O [Perampanel]	-30.9%	98.8%	–	–
NC[C@H](CC(=O)O)c1ccc(Cl)cc1 [(R)-baclofen]	46.4%	112%	–	–
CN(C)CCCN1c2ccccc2Sc2ccc(Cl)cc21 [Chlorpromazine HCl]	53.3%	115%	–	–
CCN(Cc1ccc(Cl)nc1)/C(=C/[N+](=O)[O-])NC [Nitenpyram]	-32.4%	110%	–	–
CCN1CCCC1CNC(=O)c1cc(S(=O)(=O)CC)c(N)cc1OC (stereo not drawn) [Amisulpride]	6.2%	89.7%	–	–
CN[C@H]1CC[C@@H](c2ccc(Cl)c(Cl)c2)c2ccccc21 [Sertraline HCl]	–	124%	–	–
CN(C)C(=O)C(CCN1CCC(O)(c2ccc(Cl)cc2)CC1)(c1ccccc1)c1ccccc1 [Loperamide HCl]	–	116%	23.2%	–
COc1cc2nc(N3CCN(C(=O)C4CCCO4)CC3)nc(N)c2cc1OC (stereo not drawn) [Terazosin]	-47.2%	87.8%	–	–
O=C(O[C@H]1CN2CCC1CC2)N1CCc2ccccc2[C@@H]1c1ccccc1 [Solifenacin succinate]	22.6%	102%	–	–
CN(C)C(=O)Oc1cccc([N+](C)(C)C)c1 [Neostigmine Bromide]	2%	114%	–	–
O=C1c2cccc3c2[C@H](CCC3)CN1[C@@H]1CN2CCC1CC2 [Palonosetron HCl]	-5.5%	102%	–	–
CCCC(=O)Nc1ccc(OCC(O)CNC(C)C)c(C(C)=O)c1 (stereo not drawn) [Acebutolol HCl]	–	106%	-13.9%	–
Cc1cccc([C@H](C)c2cnc[nH]2)c1C [Dexmedetomidine HCl (Precedex), Dexmedetomidine HCl]	–	120%	–	-18.5%
CCCN[C@H]1CCc2nc(N)sc2C1 [Pramipexole dihydrochloride monohydrate]	–	100%	–	2.6
Nc1nc(CC(=O)Nc2ccc(CCNC[C@H](O)c3ccccc3)cc2)cs1 [Mirabegron]	–	102%	-9.6%	–
C[N+](C)(C)CCCCCC[N+](C)(C)C [Hexamethonium Bromide]	-10.2%	104%	–	–
CN1CC2c3ccccc3Oc3ccc(Cl)cc3C2C1 (stereo not drawn) [Asenapine]	–	87.1%	–	–
